One may read the Kd as a measure of binding affinity in units of concentration. Low values mean tighter binding, high ones weaker binding.

The results in this text go back to article PMC4870834 (Biochemistry, 2015).

Assay in all cases: intrinsic fluorescence titration
Type in all cases: binding

For assay [1], the target named is SULT1A1 (Homo sapiens, UniProt P50225).
Assay [2] concerns the target SULT1A1 (Homo sapiens, UniProt P50225, V243G).
In assay [3] the target is SULT1A1 (Homo sapiens, UniProt P50225, D249S).
In assay [4] the target is SULT1A1 (Homo sapiens, UniProt P50225, F255A).
Assay [5] deals with SULT1A1 (Homo sapiens, UniProt P50225, I89A).
Sequence of SULT1A1 (Homo sapiens, UniProt P50225, I89A) (P50225 whole entry I89A): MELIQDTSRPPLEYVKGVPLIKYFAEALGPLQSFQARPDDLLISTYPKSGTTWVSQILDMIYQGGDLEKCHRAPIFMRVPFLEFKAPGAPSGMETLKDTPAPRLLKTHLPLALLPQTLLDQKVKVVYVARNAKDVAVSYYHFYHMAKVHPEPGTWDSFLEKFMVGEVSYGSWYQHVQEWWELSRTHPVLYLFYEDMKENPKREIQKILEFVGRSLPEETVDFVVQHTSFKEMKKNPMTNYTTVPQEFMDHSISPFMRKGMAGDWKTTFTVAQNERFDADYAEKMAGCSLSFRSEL

Sequence of SULT1A1 (Homo sapiens, UniProt P50225, D249S) (P50225 whole entry D249S): as the sequence (P50225 whole entry I89A) above, with A89I, D249S counted along it
Sequence of SULT1A1 (Homo sapiens, UniProt P50225) (P50225 whole entry): as the sequence (P50225 whole entry I89A) above, with A89I counted along it
Sequence of SULT1A1 (Homo sapiens, UniProt P50225, F255A) (P50225 whole entry F255A): as the sequence (P50225 whole entry I89A) above, with A89I, F255A counted along it
Sequence of SULT1A1 (Homo sapiens, UniProt P50225, V243G) (P50225 whole entry V243G): as the sequence (P50225 whole entry I89A) above, with A89I, V243G counted along it

For `C[C@]12CC[C@@H]3c4ccc(O)cc4C[C@@H](CCCCCCCCC[S+]([O-])CCCC(F)(F)C(F)(F)F)[C@H]3[C@@H]1CC[C@@H]2O` (stereo partly shown) [fulvestrant], the Kd in assay [1] is 1700 nM; in assay [2], 1300 nM; in assay [3], 1600 nM; in assay [4], 1500 nM; in assay [5] it was 1100 nM.
On the same counts, the results for `Oc1ccc2ccccc2c1` [2-Nap] are 1500 nM, 2200 nM, 2200 nM, 2000 nM and 1800 nM.
For the compound `C[C@]12CC[C@@H]3c4ccc(O)cc4CC[C@H]3[C@@H]1CC[C@@H]2O` [E2], the Kd in assay [2] was 900 nM; in assay [3] it was 900 nM; in assay [4], 900 nM; in assay [5], 1500 nM.
Take `Nc1ncnc2c1ncn2[C@@H]1O[C@H](COP(=O)(O)O)[C@@H](OP(=O)(O)O)[C@H]1O` [PAP]: the Kd was 270 nM in assay [1]; 280 nM in assay [2]; 300 nM in assay [3]; 270 nM in assay [4]; 310 nM in assay [5].
